From BindingDB's records for PubMed 2385234 (Universit&Eacute, 1990)
Several values for one entry are separate records, joined by “and”; a condition that tells them apart may be missing. Identical values can stand only once.

Assays:
[1] = target: T1, Muscarinic acetylcholine receptor M4 (Mus musculus, UniProt P32211)
T1 sequence (P32211 whole entry): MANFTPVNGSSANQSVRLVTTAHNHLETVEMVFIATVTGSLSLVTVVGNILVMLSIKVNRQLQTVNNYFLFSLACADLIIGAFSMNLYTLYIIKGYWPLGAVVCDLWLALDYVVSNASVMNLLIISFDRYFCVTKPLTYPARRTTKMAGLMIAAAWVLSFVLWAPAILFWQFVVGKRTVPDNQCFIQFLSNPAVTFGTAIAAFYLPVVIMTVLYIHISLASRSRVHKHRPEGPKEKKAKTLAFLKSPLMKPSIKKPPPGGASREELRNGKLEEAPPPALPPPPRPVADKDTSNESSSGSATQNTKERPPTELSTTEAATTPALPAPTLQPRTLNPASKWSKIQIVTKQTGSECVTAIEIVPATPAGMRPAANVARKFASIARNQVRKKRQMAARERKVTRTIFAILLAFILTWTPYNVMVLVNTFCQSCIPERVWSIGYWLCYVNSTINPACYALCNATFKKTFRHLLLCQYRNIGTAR

[2] = target: T2, Muscarinic acetylcholine receptor M2 (Rattus norvegicus, UniProt P10980)
T2 sequence (P10980 whole entry): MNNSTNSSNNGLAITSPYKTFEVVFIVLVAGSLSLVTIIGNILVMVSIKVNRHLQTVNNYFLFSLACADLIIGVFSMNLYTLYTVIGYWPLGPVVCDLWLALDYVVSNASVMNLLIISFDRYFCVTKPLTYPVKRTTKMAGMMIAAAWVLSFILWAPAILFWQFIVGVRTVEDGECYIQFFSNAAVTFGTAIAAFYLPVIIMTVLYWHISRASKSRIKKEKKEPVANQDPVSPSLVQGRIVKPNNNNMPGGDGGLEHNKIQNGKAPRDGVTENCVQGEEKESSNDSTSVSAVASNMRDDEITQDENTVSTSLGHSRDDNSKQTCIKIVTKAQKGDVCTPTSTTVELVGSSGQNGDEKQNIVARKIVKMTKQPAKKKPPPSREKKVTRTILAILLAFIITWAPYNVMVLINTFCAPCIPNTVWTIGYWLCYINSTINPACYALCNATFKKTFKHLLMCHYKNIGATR

[3] = target: Muscarinic acetylcholine receptor M3 (Rattus norvegicus, UniProt P08483)
Chain of Muscarinic acetylcholine receptor M3 (P08483 whole entry): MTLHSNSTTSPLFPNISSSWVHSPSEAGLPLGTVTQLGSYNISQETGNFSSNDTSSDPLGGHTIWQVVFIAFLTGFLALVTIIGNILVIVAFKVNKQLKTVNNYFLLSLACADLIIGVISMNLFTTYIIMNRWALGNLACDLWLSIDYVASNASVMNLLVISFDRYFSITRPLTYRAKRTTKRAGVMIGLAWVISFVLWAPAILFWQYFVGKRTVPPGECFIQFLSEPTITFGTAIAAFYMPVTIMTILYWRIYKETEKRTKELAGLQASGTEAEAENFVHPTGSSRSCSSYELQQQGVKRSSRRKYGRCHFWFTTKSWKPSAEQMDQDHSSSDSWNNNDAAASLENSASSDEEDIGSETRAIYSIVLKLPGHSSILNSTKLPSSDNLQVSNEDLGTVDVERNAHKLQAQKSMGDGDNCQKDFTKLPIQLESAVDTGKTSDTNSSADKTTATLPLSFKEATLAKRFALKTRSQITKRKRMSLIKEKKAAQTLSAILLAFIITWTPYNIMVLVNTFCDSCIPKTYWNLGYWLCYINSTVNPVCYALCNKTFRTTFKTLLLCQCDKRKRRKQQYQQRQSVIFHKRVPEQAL

[4] = target: T3, Muscarinic acetylcholine receptor M4 (Rattus norvegicus, UniProt P08485)
T3 sequence (P08485 whole entry): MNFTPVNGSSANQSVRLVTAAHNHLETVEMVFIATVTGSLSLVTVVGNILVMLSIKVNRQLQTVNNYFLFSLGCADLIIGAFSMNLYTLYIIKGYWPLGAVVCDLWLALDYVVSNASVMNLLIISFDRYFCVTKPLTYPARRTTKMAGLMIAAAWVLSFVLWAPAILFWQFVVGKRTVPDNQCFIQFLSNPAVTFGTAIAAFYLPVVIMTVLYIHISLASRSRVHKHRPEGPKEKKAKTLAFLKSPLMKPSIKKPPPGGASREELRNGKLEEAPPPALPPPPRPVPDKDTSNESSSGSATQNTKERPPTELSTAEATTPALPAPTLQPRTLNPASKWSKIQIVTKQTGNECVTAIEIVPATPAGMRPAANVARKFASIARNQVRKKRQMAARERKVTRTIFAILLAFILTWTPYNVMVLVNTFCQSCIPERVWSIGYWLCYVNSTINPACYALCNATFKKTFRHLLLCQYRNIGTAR

Structure (SMILES) | Ki [1] [nM] | Ki [2] [nM] | Ki [3] [nM] | Ki [4]
CCN(CC)CC1CCCCN1CC(=O)N1c2ccccc2C(=O)Nc2cccnc21 (configuration not stated) [(AF-DX 116) 11-[2-(2-Diethylaminomethyl-piperidin-1-yl)-acetyl]-5,11-dihydro-benzo[e]pyrido[3,2-b][1,4]diazepin-6-one] | 1600 | 74 | 4800 | 1700 nM and 1500 nM
C[N+]1(C)CCC(OC(=O)C(c2ccccc2)c2ccccc2)CC1 | 5.6 | – | – | 5.2 nM and 5.6 nM
O[Si](CCCN1CCCCC1)(c1ccccc1)C1CCCCC1 (configuration not stated) [HHSiD] | 100 | – | 50 | 93 nM and 110 nM
COc1ccccc1CNCCCCCCNCCCCCCCCNCCCCCCNCc1ccccc1OC [METHOCTRAMINE] | 160 | – | 3000 | 130 nM and 100 nM
C[C@H]1OC(=O)C2C[C@H]3CCCC[C@@H]3[C@@H](/C=C/[C@@H]3CCC[C@H](C)N3C)C21 (some centres not stated) [HIMBACINE] | 60 | 15 | 900 | 46 nM and 50 nM
CN1CCN(CC(=O)N2c3ccccc3C(=O)Nc3cccnc32)CC1 [11-[(4-methylpiperazin-1-yl)acetyl]-5,11-dihydro-6H-pyrido[2,3-b][1,4]benzodiazepin-6-one] | 400 | – | – | –
